Data reported in the Kinase Knowledgebase extract (Sharma et al. 2016).

target: MAPK14 (human) (UniProt Q16539); assay: Assessment of MAPK14 Kinase Activity
Sequence (Q16539 whole entry, looked up): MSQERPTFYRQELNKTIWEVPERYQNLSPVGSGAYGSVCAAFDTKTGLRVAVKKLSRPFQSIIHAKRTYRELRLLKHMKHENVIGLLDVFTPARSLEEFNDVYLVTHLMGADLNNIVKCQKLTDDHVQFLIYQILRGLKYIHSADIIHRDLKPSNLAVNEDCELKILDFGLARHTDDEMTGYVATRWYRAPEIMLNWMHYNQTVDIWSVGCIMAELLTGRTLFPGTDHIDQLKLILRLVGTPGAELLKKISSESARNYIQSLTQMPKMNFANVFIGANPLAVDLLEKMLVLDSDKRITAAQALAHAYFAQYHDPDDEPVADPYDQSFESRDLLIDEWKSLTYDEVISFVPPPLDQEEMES

Structure (SMILES) | IC50 [nM]
CCOC(=O)c1c(C)nn(-c2cc(C(=O)NC3CC3)ccc2C)c1N | < 1000
Cc1ccc(C(=O)O)cc1-n1ncc(C(=O)c2cccc(I)c2)c1N | 1000 to 10000
COc1nn(-c2cc(C(=O)NC3CC3)ccc2C)c(N)c1C(=O)c1ccccc1 | < 1000
Cc1ccc(C(=O)NC2CC2)cc1-n1ncc(C(=O)NC2CCCCC2C)c1N (configuration not stated) | < 1000
Cc1ccc(C(=O)NC2CC2)cc1-n1ncc(C(=O)c2ccccc2)c1N | < 1000
Cc1ccc(C(=O)NC2CC2)cc1-n1cnc(C(=O)C2CCCCC2)c1N | < 1000
Cc1ccc(C(=O)NC2CC2)cc1-n1cnc(C(=O)c2ccccn2)c1N | < 1000
CCOC(=O)c1cnn(-c2cc(C(=O)NC3CC3)ccc2C)c1N | < 1000
Cc1ccc(C(=O)NC2CC2)cc1-n1ncc(C(=O)c2cccc(OCC(O)CO)c2)c1N (configuration not stated) | < 1000
CCOC(=O)c1c(OCC(=O)NCc2cccc(Cl)c2)nn(-c2cc(C(=O)NC3CC3)ccc2C)c1N | < 1000
Cc1ccc(C(=O)NC2CC2)cc1-n1nc(OC2CCN(C(=O)OC(C)(C)C)CC2)c(C(=O)c2ccccc2)c1N | < 1000
Cc1ccc(C(=O)NC2CC2)cc1-n1ncc(C(=O)c2cccc(C#N)c2)c1N | < 1000
Cc1ccc(C(=O)NC2CC2)cc1-n1ncc(C(=O)c2cccc(-c3nnco3)c2)c1N | < 1000
CONC(=O)c1ccc(C)c(-n2ncc(C(=O)c3cccc(I)c3)c2N)c1 | < 1000
CONC(=O)c1ccc(C)c(-n2ncc(C(=O)c3ccccc3)c2N)c1 | < 1000
Cc1ccc(C(=O)NC2CC2)cc1-n1ncc(C(=O)c2cccc(I)c2)c1N | < 1000
Cc1ccc(C(=O)NC2CC2)cc1-n1ncc(C(=O)NC2CCc3ccccc32)c1N (configuration not stated) | < 1000
Cc1ccc(C(=O)NC2CC2)cc1-n1cnc(C(=O)C2CCOCC2)c1N | < 1000
Cc1ccc(C(=O)NC2CC2)cc1-n1ncc(C(=O)c2cccc(C=O)c2)c1N | < 1000
Cc1ccc(C(=O)NC2CC2)cc1-n1ncc(C(=O)c2cccc(C3OCCO3)c2)c1N | < 1000
Cc1ccc(C(=O)NC2CC2)cc1-n1ncc(C(=O)NCC(C)(C)C)c1N | < 1000
Cc1ccc(C(=O)NC2CC2)cc1-n1ncc(C(=O)Nc2ccccc2)c1N | < 1000
Cc1ccc(C(=O)NC2CC2)cc1-n1cnc(C(=O)c2ccc3c(c2)OCO3)c1N | < 1000
Cc1ccc(C(=O)O)cc1-n1ncc(C(=O)c2ccccc2)c1N | 1000 to 10000
Cc1ccc(C(=O)NC2CC2)cc1-n1nc(OCCOCc2ccccc2)c(C(=O)c2ccccc2)c1N | < 1000
Cc1ccc(C(=O)NC2CC2)cc1-n1ncc(C(=O)c2cccc(CO)c2)c1N | < 1000
Cc1ccc(-c2nnc[nH]2)cc1-n1ncc(C(=O)c2ccccc2)c1N | < 1000
